Our source for the IC50 values is PMC4872164, “Therapeutic Blockade of Immune Complex-Mediated Glomerulonephritis by Highly Selective Inhibition of Bruton’s Tyrosine Kinase” (Scientific Reports, 2016).

In this experiment the target is Bruton's tyrosine kinase (BTK) (Homo sapiens, UniProt Q06187). The experiment can be described thus: TR-FRET LanthaScreen binding assay (affinity, kinact/Ki […] ^-1 s^-1); BTK enzyme IC50; co-crystallization and mass spectrometry (not shown). Format: biochemical. On the technique in general: Time-resolved FRET reads energy transfer from a long-lived donor to a nearby acceptor.

pIC50: −log10 of the molar value.

Broadly, the pIC50 is the IC50 on a negative log10 scale, so that one unit is a factor of ten. A lower pIC50 goes with a large IC50.

Sequence of Bruton's tyrosine kinase (BTK) (Q06187 2-659): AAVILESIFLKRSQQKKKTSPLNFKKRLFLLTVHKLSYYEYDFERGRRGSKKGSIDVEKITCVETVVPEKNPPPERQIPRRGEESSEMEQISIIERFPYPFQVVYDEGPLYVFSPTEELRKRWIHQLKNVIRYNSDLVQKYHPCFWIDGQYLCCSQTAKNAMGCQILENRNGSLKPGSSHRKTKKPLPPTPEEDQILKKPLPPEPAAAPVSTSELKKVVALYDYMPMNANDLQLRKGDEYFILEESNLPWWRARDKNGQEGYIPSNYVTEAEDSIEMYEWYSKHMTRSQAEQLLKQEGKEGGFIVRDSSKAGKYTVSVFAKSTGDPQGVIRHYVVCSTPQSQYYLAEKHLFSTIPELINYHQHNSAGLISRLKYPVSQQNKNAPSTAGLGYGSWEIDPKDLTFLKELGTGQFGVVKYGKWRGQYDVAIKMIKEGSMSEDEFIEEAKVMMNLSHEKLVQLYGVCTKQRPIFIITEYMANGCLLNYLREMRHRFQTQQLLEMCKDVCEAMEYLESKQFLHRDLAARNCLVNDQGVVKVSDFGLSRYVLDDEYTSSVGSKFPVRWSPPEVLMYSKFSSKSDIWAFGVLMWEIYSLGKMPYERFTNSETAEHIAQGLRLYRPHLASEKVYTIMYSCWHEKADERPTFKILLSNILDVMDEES

In the case of BI-BTK-1, the negative logarithm of the IC50 (pIC50) was 9.05.
